Results: patent US20240383915A1, “OXAZEPINE COMPOUNDS AND USES THEREOF IN THE TREATMENT OF CANCER” (Genentech, Inc., priority 2021, published 2024)

Key:
KRas = KRas (Homo sapiens (Human), UniProt P01116); assay: KRas GDP HTRF (BODIPY-GDP exchange TR-FRET); assay type: biochemical
How it was run: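 Inhibition of SOS1-mediated exchange of BODIPY-GDP on KRAS G12D, started with 3 nM recombinant human SOS1 and 300 nM BODIPY-GDP and read after 60 min. TR-FRET excitation 337 nm, ratio 520/490 nm ×10,000. IC50 from 4-parameter Hill fit of normalized data.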

SW480 cells = assay: SW480 proliferation assay; assay type: cell-based; details: Homo sapiens, SW480, SW480; read-out: SW480 Prolif IC50 (G12V)
PC-9 cells = assay: PC9 proliferation assay; assay type: cell-based, human; details: Homo sapiens, PC-9, PC9; read-out: PC9 Prolif IC50 (G12V)
KRas(G12V) = KRas(G12V) (Homo sapiens (Human), UniProt P01116, G12V); assay: KRas(G12V) GDP HTRF (BODIPY-GDP exchange TR-FRET); assay type: biochemical
KRas(G12V), sequence (P01116-2 other isoform, or with tags, fused parts or gaps G12V): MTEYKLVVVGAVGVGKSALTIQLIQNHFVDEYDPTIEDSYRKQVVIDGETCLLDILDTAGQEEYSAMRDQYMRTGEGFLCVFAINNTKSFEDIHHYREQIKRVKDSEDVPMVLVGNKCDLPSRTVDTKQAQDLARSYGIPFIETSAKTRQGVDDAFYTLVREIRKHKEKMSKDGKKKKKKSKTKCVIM

KRas, sequence (P01116-2 other isoform, or with tags, fused parts or gaps): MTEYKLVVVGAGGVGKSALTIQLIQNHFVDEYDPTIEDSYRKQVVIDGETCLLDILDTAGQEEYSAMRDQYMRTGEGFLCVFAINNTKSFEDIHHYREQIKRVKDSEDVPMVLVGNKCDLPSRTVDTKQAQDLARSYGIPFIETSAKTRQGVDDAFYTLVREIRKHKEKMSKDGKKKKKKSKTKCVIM

IC50 (KRas) [nM]	IC50 (SW480 cells) [nM]	IC50 (PC-9 cells) [nM]	IC50 (KRas(G12V)) [nM]	SMILES
0.273	39	3200	0.13	Cc1cc(N)nc(-c2c(Cl)c3c4c(nc(OC[C@@H]5C[C@@H](F)CN5C)nc4c2F)N([C@@H]2CCCc4ccnc(N)c42)CCO3)c1C(F)(F)F (atropisomer, axis not shown) [Example 132, (R)-8-((R)-9-(6-amino-4-methyl-3-(trifluoromethyl)pyridin-2-yl)-8-chloro-10-fluoro-2-(((2S,4R)-4-fluoro-1-methylpyrrolidin-2-yl)methoxy)-5,6-dihydro-4H-[1,4]oxazepino[5,6,7-de]quinazolin-4-yl)-5,6,7,8-tetrahydroisoquinolin-1-amine]
0.37	390	1500	0.08	Cc1cc(N)nc(-c2c(Cl)c3c4c(nc(OCCN5CCN(C)CC5)nc4c2F)N([C@H](C)c2cccnc2N)CCO3)c1C(F)(F)F (atropisomer, axis not shown) [Example 135, 6-((R)-4-((R)-1-(2-aminopyridin-3-yl)ethyl)-8-chloro-10-fluoro-2-(2-(4-methylpiperazin-1-yl)ethoxy)-5,6-dihydro-4H-[1,4]oxazepino[5,6,7-de]quinazolin-9-yl)-4-methyl-5-(trifluoromethyl)pyridin-2-amine]
0.83	63	8600	0.21	Cc1cc(N)nc(-c2c(Cl)c3c4c(nc(OCCn5cccn5)nc4c2F)N([C@H](C)c2cccnc2N)CCO3)c1C(F)(F)F (atropisomer, axis not shown) [Example 136, 6-((R)-2-(2-(1H-pyrazol-1-yl)ethoxy)-4-((R)-1-(2-aminopyridin-3-yl)ethyl)-8-chloro-10-fluoro-5,6-dihydro-4H-[1,4]oxazepino[5,6,7-de]quinazolin-9-yl)-4-methyl-5-(trifluoromethyl)pyridin-2-amine]
1.1	120	7700	0.31	Cc1cc(N)nc(-c2c(Cl)c3c4c(nc(OCC5(C#N)CCOCC5)nc4c2F)N([C@H](C)c2cccnc2N)CCO3)c1C(F)(F)F (atropisomer, axis not shown) [Example 142, 4-((((R)-9-(6-amino-4-methyl-3-(trifluoromethyl)pyridin-2-yl)-4-((R)-1-(2-aminopyridin-3-yl)ethyl)-8-chloro-10-fluoro-5,6-dihydro-4H-[1,4]oxazepino[5,6,7-de]quinazolin-2-yl)oxy)methyl)tetrahydro-2H-pyran-4-carbonitrile]
4.4	520	6000	1.4	Cc1cc(N)nc(-c2c(Cl)c3c4c(nc(OCC5(C)CCOCC5)nc4c2F)N([C@H](C)c2cccnc2N)CCO3)c1C(F)(F)F (atropisomer, axis not shown) [Example 144, 6-((R)-4-((R)-1-(2-aminopyridin-3-yl)ethyl)-8-chloro-10-fluoro-2-((4-methyltetrahydro-2H-pyran-4-yl)methoxy)-5,6-dihydro-4H-[1,4]oxazepino[5,6,7-de]quinazolin-9-yl)-4-methyl-5-(trifluoromethyl)pyridin-2-amine]
1.2	450	20000	0.56	Cc1cc(N)nc(-c2c(Cl)c3c4c(nc(OC[C@H]5C[C@H](O)C5)nc4c2F)N([C@H](C)c2cccnc2N)CCO3)c1C(F)(F)F (atropisomer, axis not shown) [Example 145, (1R,3r)-3-((((R)-9-(6-amino-4-methyl-3-(trifluoromethyl)pyridin-2-yl)-4-((R)-1-(2-aminopyridin-3-yl)ethyl)-8-chloro-10-fluoro-5,6-dihydro-4H-[1,4]oxazepino[5,6,7-de]quinazolin-2-yl)oxy)methyl)cyclobutan-1-ol]
